Source: ChEMBL document CHEMBL1201862, “PubChem BioAssay data set” (2004)
Activity calls are given as the source filed them.

Experiments:
[1] = biological target: Fructose-bisphosphate aldolase (Mycobacterium tuberculosis, UniProt P9WQA3); assay: Fluorescence-based biochemical high throughput dose response assay for inhibitors of the fructose-bisphosphate aldolase (FBA) of M. tuberculosis.; assay type: functional
[2] = biological target: Long-chain-fatty-acid--AMP ligase FadD28 (Mycobacterium tuberculosis, UniProt P9WQ59); assay: Fluorescence polarization aasay to screen for inhibitors that compete for the binding of FadD28 to a bisubstrate Measured in Biochemical System Using Plate Reader - 2147-01_Inhibitor_Dose_CherryPick_Activity.; assay type: functional, Mycobacterium tuberculosis H37Rv
[3] = biological target: Photoreceptor-specific nuclear receptor (Homo sapiens, UniProt Q9Y5X4); assay type: functional;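 further: potency for compounds that break the NR2E3 corepressor complex and count as activators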
Major prion protein = Major prion protein (Homo sapiens, UniProt P04156); assay type: functional, cell-based
[4] = biological target: Peroxisome proliferator-activated receptor gamma/Nuclear receptor corepressor 2 (Homo sapiens, UniProt P37231+Q9Y618); assay type: functional
[5] = biological target: T1, Sentrin-specific protease 1 (Homo sapiens, UniProt Q9P0U3); assay: SENP1 catalytic domain blockers, concentration series – biochemical, kinetic FRET, dose response (AID 651697); assay type: functional; conditions: read-out: IC50_Mean
T1 sequence (Q9P0U3 whole entry): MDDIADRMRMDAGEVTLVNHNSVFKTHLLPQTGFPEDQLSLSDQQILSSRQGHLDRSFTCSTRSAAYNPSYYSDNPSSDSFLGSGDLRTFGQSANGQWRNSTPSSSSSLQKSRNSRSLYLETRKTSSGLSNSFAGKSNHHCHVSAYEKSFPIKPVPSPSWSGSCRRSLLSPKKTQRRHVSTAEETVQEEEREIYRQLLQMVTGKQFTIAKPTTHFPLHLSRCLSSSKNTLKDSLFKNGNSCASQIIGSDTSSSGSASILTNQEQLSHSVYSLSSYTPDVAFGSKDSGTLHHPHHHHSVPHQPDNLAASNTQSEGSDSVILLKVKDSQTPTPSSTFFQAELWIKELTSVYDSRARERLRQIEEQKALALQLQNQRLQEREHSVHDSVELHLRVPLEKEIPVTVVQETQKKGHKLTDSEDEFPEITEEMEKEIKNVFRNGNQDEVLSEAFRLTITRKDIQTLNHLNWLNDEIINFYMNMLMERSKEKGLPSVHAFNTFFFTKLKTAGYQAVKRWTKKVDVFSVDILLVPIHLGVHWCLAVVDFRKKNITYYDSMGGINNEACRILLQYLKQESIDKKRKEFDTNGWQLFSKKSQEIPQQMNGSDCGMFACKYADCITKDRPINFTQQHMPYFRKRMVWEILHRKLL

[6] = biological target: T1, Sentrin-specific protease 1; assay: Dose response confirmation of small molecule inhibitors of the catalytic domain of the SUMO protease, SENP1 in a FRET assay.; assay type: functional; conditions: read-out: IC50_Mean
Beta-galactosidase = Beta-galactosidase (Escherichia coli, UniProt Q8VNN2); assay: Dose response counterscreen for EBI2 assay utilizing the enzyme, b-galactosidase.; assay type: functional
[7] = potency of ADAM10 substrate cleavage blockers – biochemical, QFRET, dose response (AID 743254);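 further: ADAM10 enzyme with the DM2 quenched FRET peptide as substrate; EDANS fluorescence gain as the protease cuts the substrate; inhibitor potency against ADAM10 proteolytic activity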
cells [8] = assay: cells
[9] = biological target: T2, Probable nicotinate-nucleotide adenylyltransferase (Staphylococcus aureus (strain N315), UniProt P65502); assay type: functional, Staphylococcus aureus subsp. aureus N315;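 on IC50 Mean: confirmatory dose-response retesting of NadD inhibitor hits first found in an ultra-high-throughput screen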
H4 = assay: Luminescence Cell-Based Dose Response HTS to Identify Activators of 5'UTR Stem-Loop Driven Prion Protein mRNA Translation in H4 Neuroglioblastoma Cells. [Related pubchem assays: 1829 (Project Summary), 1814 (Primary HTS)]; assay type: functional; conditions: Homo sapiens
[10] = Luminescence Cell-Based Dose Response HTS to Identify Activators of Luciferase Translation or Activity in H4 […] Cells. [Related pubchem assays: 1829 (Project Summary), 1814 (Primary HTS)]; assay type: functional
[11] = biological target: T2, Probable nicotinate-nucleotide adenylyltransferase; assay type: functional, Staphylococcus aureus subsp. aureus N315; conditions: read-out: IC50_Mean
[12] = Luminescence Cell-Based Dose Confirmation HTS to Identify Activators of 5'UTR Stem-Loop Driven Alpha-Synuclein mRNA Translation in H4 Neuroglioblastoma Cells. [Related pubchem assays: 1829 (Project Summary), 1814 (Primary HTS)]; assay type: functional
[13] = bead-based luminescence quenchers, dual-tagged ARNT – biochemical, AlphaScreen, cherry-pick, artefact control for ARNT-TACC3 interaction inhibitor project, dose response (AID 651705); assay type: functional;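 further: AlphaScreen bead proximity signal that flags compounds interfering with the detection technology; potency reflects signal decrease which marks the compound as an assay artifact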
Nonstructural protein 1 = Nonstructural protein 1 (Influenza A virus, UniProt Q194T2); assay type: functional, Influenza A virus (A/California/07/2009(H1N1))
[14] = biological target: T3, Heat shock factor protein 1 (Mus musculus, UniProt P38532); assay: decrease of HSF1-responsive luciferase luminescence – cell-based, NIH3T3, dose retest, confirmation (AID 2382); assay type: functional;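 further: NIH3T3 fibroblasts with HSF1-driven luciferase reporter stressed by proteasome inhibitor MG132; luminescence from HSF1-driven luciferase expression after 8 hours of MG132 stress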
T3 sequence (P38532 whole entry): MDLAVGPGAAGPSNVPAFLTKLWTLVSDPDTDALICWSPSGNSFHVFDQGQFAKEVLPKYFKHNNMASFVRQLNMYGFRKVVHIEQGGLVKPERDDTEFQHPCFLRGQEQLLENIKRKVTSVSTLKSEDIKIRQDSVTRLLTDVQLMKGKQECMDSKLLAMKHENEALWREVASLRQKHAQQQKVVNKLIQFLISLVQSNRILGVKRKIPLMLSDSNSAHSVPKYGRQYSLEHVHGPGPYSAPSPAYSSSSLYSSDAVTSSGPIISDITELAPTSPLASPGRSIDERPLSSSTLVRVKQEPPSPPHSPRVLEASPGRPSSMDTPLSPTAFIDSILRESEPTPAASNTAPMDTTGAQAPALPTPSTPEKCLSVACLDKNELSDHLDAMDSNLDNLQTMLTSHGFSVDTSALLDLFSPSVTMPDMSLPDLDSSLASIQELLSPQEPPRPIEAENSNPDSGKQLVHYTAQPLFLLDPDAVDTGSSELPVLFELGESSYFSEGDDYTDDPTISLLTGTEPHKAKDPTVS

[15] = cAMP pathway inhibition in counterscreen cell line – TR-FRET cAMP detection, counter-screen for MC4R biased antagonist project, dose response (AID 602305); assay type: functional, cell-based;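 further: U2OS cells stimulated with forskolin near its EC80 as the cAMP inducer; potency is for inhibition of forskolin-stimulated cAMP signaling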
Paired box protein Pax-8 = Paired box protein Pax-8 (Homo sapiens, UniProt Q06710); assay: PAX8 transcriptional activity inhibition in RMG-I – RMG-I cells, luciferase, cherry-pick, dose response (AID 687027); assay type: functional, cell-based;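 further: luciferase reporter driven by Pax8 target thyroperoxidase promoter measured by SteadyGlo luminescence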
[16] = off-target signal loss in HeLa-CEM21 co-culture – HeLa F-luc CTL cells, cherry-picked, counter-screen for HIV-1 Env fusion inhibitor project, dose response (AID 652040); assay type: functional, cell-based;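 further: potency for signal decrease marking cytotoxic or nonspecific inhibition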
[17] = biological target: T4, Sphingosine 1-phosphate receptor 4 (Homo sapiens, UniProt O95977); assay: Fluorescence dose response cell-based high throughput screening assay for antagonists of the Sphingosine 1-Phosphate Receptor 4 (S1P4). [Related pubchem assays: 1524 (Confirmation in triplicates.), 1510 (Primary screen.)]; assay type: functional
T4 sequence (O95977 whole entry): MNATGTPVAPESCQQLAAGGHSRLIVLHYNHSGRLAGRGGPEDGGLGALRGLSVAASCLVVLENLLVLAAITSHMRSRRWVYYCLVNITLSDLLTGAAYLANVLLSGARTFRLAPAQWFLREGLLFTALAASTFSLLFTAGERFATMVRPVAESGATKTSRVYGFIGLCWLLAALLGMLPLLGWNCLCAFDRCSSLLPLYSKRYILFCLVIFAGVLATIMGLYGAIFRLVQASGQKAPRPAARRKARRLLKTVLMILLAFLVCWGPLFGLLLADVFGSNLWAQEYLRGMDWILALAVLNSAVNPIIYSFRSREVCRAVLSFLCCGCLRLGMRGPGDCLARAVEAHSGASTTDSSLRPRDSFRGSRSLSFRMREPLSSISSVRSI

[18] = blockers of HIV-1 ZM109 envelope-driven cell-cell fusion – HeLa effector, CEM target cells, luciferase, cherry-pick, dose response (AID 652058); assay type: functional, cell-based;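 further: luciferase signal from HIV-1 Env mediated cell-cell fusion of effector and target cells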
Melanocortin receptor 4 = Melanocortin receptor 4 (Homo sapiens, UniProt P32245); assay: inhibitors of MC4R cAMP signaling – cell-based, TR-FRET, biased antagonists, dose response (AID 602298); assay type: functional;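 further: antagonist potency against agonist-stimulated cAMP production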
Galanin receptor type 3 = Galanin receptor type 3 (Homo sapiens, UniProt O60755); assay: Fluorescence-based cell-based primary high throughput dose response assay to identify antagonists of the Galanin Receptor 3 (GalR3).; assay type: functional
[19] = biological target: T5, Polyadenylate-binding protein 1 (Homo sapiens, UniProt P11940); assay: MLLE binding blockers, Cy5 peptide tracer – biochemical, fluorescence polarization, Cy5-PAM2 peptide, secondary, miRNA deadenylation inhibitor project, dose response (AID 602260); assay type: functional; conditions: read-out: IC50_Mean
[20] = biological target: Dual specificity tyrosine-phosphorylation-regulated kinase 1A (Rattus norvegicus, UniProt Q63470); assay type: biochemical, Homo sapiens
[21] = blockers of HIV-1 envelope-mediated cell-cell fusion – cherry-pick, dose response (AID 652057); assay type: functional, cell-based
[22] = biological target: T5, Polyadenylate-binding protein 1; assay: MLLE domain peptide-binding blockers, IC50 – biochemical, fluorescence polarization, FITC-PAM2 peptide, dose response (AID 602259); assay type: functional; conditions: read-out: IC50_Mean
[23] = HIV-1 AD8 envelope cell-cell fusion blockers – cherry-pick, dose response (AID 652062); assay type: functional, cell-based;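 further: luciferase signal from cell-cell fusion driven by HIV-1 clade B AD8 Env; potency is for inhibitors of fusion seen as a drop in luminescence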
cells [24] = assay type: functional, cell-based; conditions: HEK-CNG
[25] = biological target: Sphingosine 1-phosphate receptor 1 (Homo sapiens, UniProt P21453); assay type: functional;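 further: Tango beta-arrestin reporter U2OS cells stimulated with S1P near its EC80; inhibitor potency meaning antagonism of receptor activation by the natural agonist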
[26] = viability loss in CEM21 cells – cell-based, CellTiter-Glo luminescence, cherry-picked, cytotoxicity control for viral fusion inhibitor project, dose response (AID 652042); assay type: functional;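 further: potency for signal decrease meaning cytotoxicity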
[27] = T. cruzi growth inhibition in host cells, dose response, cell-based, plate reader, dry powder, set 2 (AID 652275); assay type: functional
[28] = anti-trypanosomal activity in BESM host cells – imaging, CA-I/72 strain, bovine embryo skeletal muscle, dry powder, dose response (AID 651885); assay type: functional, cell-based
[29] = intracellular Trypanosoma cruzi inhibitors in host cells – cell-based, plate reader, cherry-pick samples, set 3, dose response (AID 651818); assay type: functional;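 further: compounds incubated with infected cells for about four days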

## Cc1cccc(C)c1NC(=S)Nc1ccccc1C(=O)NCc1ccco1
[1]
  IC50: 6.61 µM (active)

## COc1ccc(CNCc2ccc(OC)c3ccccc23)cc1
[1]
  IC50: > 10 µM (inactive)

## Cn1c(=O)c2cc(NC(=S)NC3CCCCC3)ccc2n1C/C=C/c1ccccc1
[2]
  AC50: > 100 µM (inactive)

## CC(C)C1Cc2ccccc2-c2[nH]c(=S)[nH]c(=O)c21 (stereo unspecified)
[3]
  IC50: > 39.8 µM (not active)
Major prion protein
  IC50: 4.87 µM (active)
[4]
  IC50: 4.66 µM (active)

## CC(=O)Nc1cc(-c2ccc(N3CCN(C)CC3)cc2)cn2c(-c3ccccc3)cnc12
[5]
  IC50: 24.1 µM (inactive)
[6]
  IC50: 12.2 µM (active)

## COc1ccc(OCC(=O)Nc2ccc(N3CCOCC3)cc2)cc1
Beta-galactosidase
  IC50: > 80 µM (inactive)

## Nc1nc(N)c2sc3nc(C(F)(F)F)cc(C(F)(F)F)c3c2n1
[5]
  IC50: 30 µM (inactive)
[6]
  IC50: 16.7 µM (active)

## COc1ccc(/C=C2\SC(=O)N(CC(=O)Nc3cccc(C)c3)C2=O)cc1O
[2]
  AC50: 1.47 µM (active)

## Cc1ccc(C(=O)Nc2nnc(N=C(S)Nc3ccccc3)s2)cc1
[7]
  IC50: > 69.5 µM (inactive)

## COc1ccc(-c2ccc(-c3nc4ccc(C)cn4c3NC3CCCCC3)cc2OC)cc1
Beta-galactosidase
  IC50: 77.5 µM (inactive)

## Cc1ccc(-n2nc3c(SCCN4CCOCC4)nnc(C)c3c2C)cc1
Major prion protein
  IC50: 12.8 µM (inactive)
Cells [8]
  IC50: > 138 µM (inactive)

## Cc1ccc(Nc2nc(Nc3ccc(C)cc3)nc(SC3=NCCS3)n2)cc1
[9]
  IC50: 28.6 µM (active)
H4
  EC50: 17.6 µM (active)
[10]
  EC50: > 120 µM (not active)
[11]
  IC50: 53.6 µM (active)
[12]
  EC50: > 120 µM (not active)

## O=C(NCCCn1ccnc1)C(=O)NCC1OCCN1S(=O)(=O)c1cc(F)ccc1F (stereo unspecified)
[13]
  AC50: 84.5 µM (active)
Nonstructural protein 1
  IC50: 12.7 µM (active)
[14]
  EC50: 128 µM (active)

## CC(C)C1Cc2ccccc2-c2nc(S)nc(O)c21 (stereo unspecified)
Cells [8]
  IC50: > 138 µM (inactive)

## NC(=S)c1cn([C@@H]2O[C@H](CO)[C@@H](O)[C@H]2O)c2ncnc(N)c12
[15]
  IC50: > 64.6 µM (inactive)
Paired box protein Pax-8
  AC50: 0.294 µM (active)
[16]
  AC50: < 0.26 µM (active)
[17]
  IC50: 0.42 µM (active)
[18]
  AC50: < 0.26 µM (active)
Melanocortin receptor 4
  IC50: > 64.6 µM (inactive)
Galanin receptor type 3
  IC50: 1.01 µM (active)
[19]
  IC50: > 66 µM (inactive)
[20]
  AC50: 0.158 µM (active)
[21]
  AC50: < 0.26 µM (active)
[22]
  IC50: > 66 µM (inactive)
[23]
  AC50: < 0.26 µM (active)
Cells [24]
  EC50: > 29.9 µM (inactive)
[25]
  IC50: 1.96 µM (active)
[26]
  AC50: 0.344 µM (active)

## C[C@@H]1CN([C@@H](C)CO)C(=O)c2cccc(NC(=O)c3ccncc3)c2O[C@H]1CN(C)CC1CCCCC1
[27]
  AC50: 0.182 µM (active)
[28]
  IC50: 0.74 µM (active)
[18]
  AC50: 0.953 µM (active)
[21]
  AC50: 0.4 µM (active)
[29]
  AC50: 0.636 µM (active)
[23]
  AC50: 1.96 µM (active)
